According to patent US10577363B2, “Substituted piperidine compounds” (EPIZYME, INC., priority 2014, dated 2020):

Each compound was assayed against SMYD3 (Homo sapiens (Human), UniProt Q9H7B4) (assay: SMYD3 biochemical assay (SPA, 3H-SAM methylation of MEKK2 protein substrate)). Conditions: Table 1A; IC50 values are an average of n = 1 to n = 50; read-out: SMYD3 Biochem IC50.
Method in brief: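 Enzyme: untagged full-length human SMYD3 from E. coli; substrate GST-tagged MEKK2 from insect cells. Buffer 25 mM Tris-Cl pH 8.0, 1 mM TCEP, 0.005% BSG/Tween 20. 30 min compound–enzyme preincubation at RT; 3H-SAM/MEKK2 start; stop with cold SAM (100 uM final); SPA readout in cpm.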

IC50	SMILES
0.32 µM	C[C@@H]1C[C@@H](NC(=O)c2cc(C3CC3)on2)CCN1S(=O)(=O)c1ccc(N(C)CCN)nc1 [compound 508, N-((2R,4S)-1-((6-((2-aminoethyl)(methyl)amino)pyridin-3-yl)sulfonyl)-2-methylpiperidin-4-yl)-5-cyclopropylisoxazole-3-carboxamide]
0.00592 µM	C[C@H]1C[C@@H](NC(=O)c2cc(C3CC3)on2)CCN1S(=O)(=O)c1ccc(NCCN)nc1 [compound 509, N-((2S,4S)-1-((6-((2-aminoethyl)amino)pyridin-3-yl)sulfonyl)-2-methylpiperidin-4-yl)-5-cyclopropylisoxazole-3-carboxamide]
> 10 µM	CC(C)CN(C)c1cc(S(=O)(=O)N2CC[C@H](NC(=O)c3cc(C4CC4)on3)C[C@@H]2C)ccn1 [compound 510, 5-cyclopropyl-N-((2S,4S)-1-((2-(isobutyl(methyl)amino)pyridin-4-yl)sulfonyl)-2-methylpiperidin-4-yl)isoxazole-3-carboxamide]
> 10 µM	CC(C)CN(C)c1cc(S(=O)(=O)N2CC[C@@H](NC(=O)c3cc(C4CC4)on3)C[C@@H]2C)ccn1 [compound 511, 5-cyclopropyl-N-((2S,4R)-1-((2-(isobutyl(methyl)amino)pyridin-4-yl)sulfonyl)-2-methylpiperidin-4-yl)isoxazole-3-carboxamide]
0.487 µM	C[C@@H]1C[C@@H](NC(=O)c2cc(C3CC3)on2)CCN1S(=O)(=O)c1ccnc(N(C)CCN)c1 [compound 512, N-((2R,4S)-1-((2-((2-aminoethyl)(methyl)amino)pyridin-4-yl)sulfonyl)-2-methylpiperidin-4-yl)-5-cyclopropylisoxazole-3-carboxamide]
1.09 µM	C[C@H]1C[C@@H](NC(=O)c2cc(C3CC3)on2)CCN1S(=O)(=O)c1ccc(C#N)nc1 [compound 513, N-((2S,4S)-1-((6-cyanopyridin-3-yl)sulfonyl)-2-methylpiperidin-4-yl)-5-cyclopropylisoxazole-3-carboxamide]
3.72 µM	CCN(CC)S(=O)(=O)N1CC[C@H](NC(=O)c2cc(C3CC3)on2)C[C@@H]1C [compound 518, 5-cyclopropyl-N-((2S,4S)-1-(N,N-diethylsulfamoyl)-2-methylpiperidin-4-yl)isoxazole-3-carboxamide]

SMILES	IC50
O=C(N[C@H]1C[C@H]2CC[C@@H](C1)N2S(=O)(=O)c1cc2oc(=O)[nH]c2cc1Cl)c1cc(C2CC2)on1 [compound 492, N-((1R,3r,5S)-8-((5-chloro-2-oxo-2,3-dihydrobenzo[d]oxazol-6-yl)sulfonyl)-8-azabicyclo[3.2.1]octan-3-yl)-5-cyclopropylisoxazole-3-carboxamide]	> 10 µM

Same assay, conditions: read-out: SMYD3 Biochem IC50

IC50	SMILES
> 10 µM	CC(C)CN(C)c1ccc(S(=O)(=O)N2C3CCCC2CC(NC(=O)c2cc(C4CC4)on2)C3)cn1 (stereo not drawn) [compound 514, 5-cyclopropyl-N-(9-((6-(isobutyl(methyl)amino)pyridin-3-yl)sulfonyl)-9-azabicyclo[3.3.1]nonan-3-yl)isoxazole-3-carboxamide]
0.0176 µM	NCCNc1ccc(S(=O)(=O)N2C3CCCC2CC(NC(=O)c2cc(C4CC4)on2)C3)cn1 (stereo not drawn) [compound 515, N-(9-((6-((2-aminoethyl)amino)pyridin-3-yl)sulfonyl)-9-azabicyclo[3.3.1]nonan-3-yl)-5-cyclopropylisoxazole-3-carboxamide]
0.0742 µM	NCCCNc1ccc(S(=O)(=O)N2C3CCCC2CC(NC(=O)c2cc(C4CC4)on2)C3)cn1 (stereo not drawn) [compound 516, N-(9-((6-((3-aminopropyl)amino)pyridin-3-yl)sulfonyl)-9-azabicyclo[3.3.1]nonan-3-yl)-5-cyclopropylisoxazole-3-carboxamide]
0.0803 µM	CN(CCCN)c1ccc(S(=O)(=O)N2C3CCCC2CC(NC(=O)c2cc(C4CC4)on2)C3)cn1 (stereo not drawn) [compound 517, N-(9-((6-((3-aminopropyl)(methyl)amino)pyridin-3-yl)sulfonyl)-9-azabicyclo[3.3.1]nonan-3-yl)-5-cyclopropylisoxazole-3-carboxamide]

Same assay, conditions: read-out: SMYD3 Biochem IC50 (μM)*

IC50	SMILES
0.13 µM	NCCCS(=O)(=O)N1CCC(NC(=O)c2cc(C3CC3)on2)CC12CCC2 (stereo not drawn) [compound 445, N-(5-((3-aminopropyl)sulfonyl)-5-azaspiro[3.5]nonan-8-yl)-5-cyclopropylisoxazole-3-carboxamide]
> 10 µM	CC(C)CNc1ccc(S(=O)(=O)N2CC[C@H](NC(=O)c3cc(C4CC4)on3)C[C@H]2C)cn1 [compound 451, 5-cyclopropyl-N-((2R,4S)-1-((6-(isobutylamino)pyridin-3-yl)sulfonyl)-2-methylpiperidin-4-yl)isoxazole-3-carboxamide]
> 10 µM	CC(C)CNc1ccc(S(=O)(=O)N2CC[C@@H](NC(=O)c3cc(C4CC4)on3)C[C@@H]2C)cn1 [compound 452, 5-cyclopropyl-N-((2S,4R)-1-((6-(isobutylamino)pyridin-3-yl)sulfonyl)-2-methylpiperidin-4-yl)isoxazole-3-carboxamide]
0.305 µM	C[C@H]1C[C@H](NC(=O)c2cc(C3CC3)on2)CCN1S(=O)(=O)c1ccc(N(C)CCN)nc1 [compound 462, N-((2S,4R)-1-((6-((2-aminoethyl)(methyl)amino)pyridin-3-yl)sulfonyl)-2-methylpiperidin-4-yl)-5-cyclopropylisoxazole-3-carboxamide]
0.121 µM	C[C@H]1C[C@@H](NC(=O)c2cc(C3CC3)on2)CCN1S(=O)(=O)c1ccc(Cl)cn1 [compound 466, N-((2S,4S)-1-((5-chloropyridin-2-yl)sulfonyl)-2-methylpiperidin-4-yl)-5-cyclopropylisoxazole-3-carboxamide]
1.22 µM	COC(=O)C1CN(C(=O)[C@H]2CC[C@H](N)CC2)CC(C)C1NC(=O)c1cc(C2CC2)on1 (stereo partly drawn) [compound 468, methyl 1-((1r,4r)-4-aminocyclohexane-1-carbonyl)-4-(5-cyclopropylisoxazole-3-carboxamido)-5-methylpiperidine-3-carboxylate]
6.28 µM	N[C@H]1CC[C@H](C(=O)N2CCC(NC(=O)c3cc(C4CC4)on3)C(c3ccccc3)C2)CC1 (stereo partly drawn) [compound 469, N-(1-((1r,4r)-4-aminocyclohexane-1-carbonyl)-3-phenylpiperidin-4-yl)-5-cyclopropylisoxazole-3-carboxamide]
2.76 µM	NCCCS(=O)(=O)N1CCC(NC(=O)c2cc(C3CC3)on2)C(c2ccccc2)C1 (stereo not drawn) [compound 470, N-(1-((3-aminopropyl)sulfonyl)-3-phenylpiperidin-4-yl)-5-cyclopropylisoxazole-3-carboxamide]
5.76 µM	COC(=O)C1CN(C(=O)CCCN)CC(C)C1NC(=O)c1cc(C2CC2)on1 (stereo not drawn) [compound 471, methyl 1-(4-aminobutanoyl)-4-(5-cyclopropylisoxazole-3-carboxamido)-5-methylpiperidine-3-carboxylate]
> 10 µM	CC(C)CN(C)c1ncccc1S(=O)(=O)N1C2CCCC1CC(NC(=O)c1cc(C3CC3)on1)C2 (stereo not drawn) [compound 472, 5-cyclopropyl-N-(9-((2-(isobutyl(methyl)amino)pyridin-3-yl)sulfonyl)-9-azabicyclo[3.3.1]nonan-3-yl)isoxazole-3-carboxamide]
5.97 µM	CC(C)CNc1ncccc1S(=O)(=O)N1C2CCCC1CC(NC(=O)c1cc(C3CC3)on1)C2 (stereo not drawn) [compound 473, 5-cyclopropyl-N-(9-((2-(isobutylamino)pyridin-3-yl)sulfonyl)-9-azabicyclo[3.3.1]nonan-3-yl)isoxazole-3-carboxamide]
2.74 µM	CC(C)CNc1ncccc1S(=O)(=O)N1CC[C@H](NC(=O)c2cc(C3CC3)on2)C[C@@H]1C [compound 474, 5-cyclopropyl-N-((2S,4S)-1-((2-(isobutylamino)pyridin-3-yl)sulfonyl)-2-methylpiperidin-4-yl)isoxazole-3-carboxamide]
1.31 µM	NCCNc1ncccc1S(=O)(=O)N1C2CCCC1CC(NC(=O)c1cc(C3CC3)on1)C2 (stereo not drawn) [compound 476, N-(9-((2-((2-aminoethyl)amino)pyridin-3-yl)sulfonyl)-9-azabicyclo[3.3.1]nonan-3-yl)-5-cyclopropylisoxazole-3-carboxamide]

SMILES	IC50
N[C@H]1CC[C@@H](C(=O)N2[C@@H]3CC[C@H]2C[C@@H](NC(=O)c2cc(C4CC4)on2)C3)CC1 [compound 429, N-((1R,3R,5S)-8-((1s,4S)-4-aminocyclohexane-1-carbonyl)-8-azabicyclo[3.2.1]octan-3-yl)-5-cyclopropylisoxazole-3-carboxamide]	0.351 µM
CNc1ccc(S(=O)(=O)N2CC[C@H](NC(=O)c3cc(C4CC4)on3)C[C@H]2C)cn1 [compound 447, 5-cyclopropyl-N-((2R,4S)-2-methyl-1-((6-(methylamino)pyridin-3-yl)sulfonyl)piperidin-4-yl)isoxazole-3-carboxamide]	> 10 µM
CNc1ccc(S(=O)(=O)N2CC[C@@H](NC(=O)c3cc(C4CC4)on3)C[C@@H]2C)cn1 [compound 448, 5-cyclopropyl-N-((2S,4R)-2-methyl-1-((6-(methylamino)pyridin-3-yl)sulfonyl)piperidin-4-yl)isoxazole-3-carboxamide]	> 10 µM
COCCNc1ccc(S(=O)(=O)N2CC[C@H](NC(=O)c3cc(C4CC4)on3)C[C@H]2C)cn1 [compound 456, 5-cyclopropyl-N-((2R,4S)-1-((6-((2-methoxyethyl)amino)pyridin-3-yl)sulfonyl)-2-methylpiperidin-4-yl)isoxazole-3-carboxamide]	> 10 µM
N[C@H]1CC[C@@H](C(=O)N2[C@@H]3CC[C@H]2C[C@H](NC(=O)c2cc(C4CC4)on2)C3)CC1 [compound 486, N-((1R,3S,5S)-8-((1s,4S)-4-aminocyclohexane-1-carbonyl)-8-azabicyclo[3.2.1]octan-3-yl)-5-cyclopropylisoxazole-3-carboxamide]	> 10 µM
